In patent US20140249135A1, “PIM KINASE INHIBITORS AND METHODS OF THEIR USE” (NOVARTIS AG, priority 2007, published 2014):
Read-outs that look alike come from different tables or passages of the source.

Columns and labels:
Pim1 kinase = Pim1 kinase (Homo sapiens, UniProt P11309); test: Pim1 ATP depletion assay; assay type: biochemical; details: Pim1 ATP depletion assay;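 further: Luciferase-luciferin luminescence readout of residual ATP after PIM1 transfers phosphate to a peptide substrate, 40 µM ATP added, reaction run to roughly half ATP consumption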
Pim2 kinase = Pim2 kinase (Homo sapiens, UniProt Q9P1W9); test: Pim2 ATP depletion assay; assay type: biochemical;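 further: Luciferase-based luminescent readout of ATP remaining after PIM2 phosphorylates a BAD peptide, final 5 nM enzyme, 4 µM ATP, 10 µM peptide, 2.5% DMSO, run to roughly half ATP consumption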
Pim3 kinase = Pim3 kinase (Homo sapiens, UniProt Q86V86); test: Pim3 ATP depletion assay; assay type: biochemical
KDR kinase = KDR kinase (Homo sapiens, UniProt P35968); test: KDR AlphaScreen assay; details: KDR IC50 (μM)
[1] = biological target: T1, human full length PKCE enzyme (Homo sapiens, UniProt Q02156); test: In vitro PKCE assay; assay type: biochemical; details: 10 nM enzyme, 40 uM peptide substrate, 20 uM ATP, KinaseGlo Plus readout; read-out: PKCε IC50
T1 construct: human full length PKCE enzyme purchased from InVitrogen; purchased InVitrogen
T1 sequence (Q02156 1-737): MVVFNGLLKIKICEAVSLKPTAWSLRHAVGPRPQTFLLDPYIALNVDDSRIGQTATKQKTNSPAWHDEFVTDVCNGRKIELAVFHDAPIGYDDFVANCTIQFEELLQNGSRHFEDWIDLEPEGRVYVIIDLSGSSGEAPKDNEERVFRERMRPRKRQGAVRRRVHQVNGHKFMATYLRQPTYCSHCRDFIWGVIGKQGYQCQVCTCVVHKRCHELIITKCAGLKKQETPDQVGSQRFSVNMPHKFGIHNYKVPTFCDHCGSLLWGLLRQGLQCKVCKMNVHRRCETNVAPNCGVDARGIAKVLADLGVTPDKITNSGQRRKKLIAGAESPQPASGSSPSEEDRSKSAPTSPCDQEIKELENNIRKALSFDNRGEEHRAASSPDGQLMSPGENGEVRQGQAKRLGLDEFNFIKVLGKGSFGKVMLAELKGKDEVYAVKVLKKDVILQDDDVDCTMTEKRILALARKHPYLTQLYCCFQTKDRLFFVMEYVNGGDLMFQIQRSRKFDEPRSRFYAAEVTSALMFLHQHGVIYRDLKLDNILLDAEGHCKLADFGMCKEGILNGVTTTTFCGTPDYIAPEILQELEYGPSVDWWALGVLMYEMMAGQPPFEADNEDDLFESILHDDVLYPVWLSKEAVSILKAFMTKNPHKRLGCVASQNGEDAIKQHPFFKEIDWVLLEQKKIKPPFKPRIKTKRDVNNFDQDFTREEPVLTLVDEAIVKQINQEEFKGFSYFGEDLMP

Chain of Pim2 kinase (Q9P1W9 whole entry): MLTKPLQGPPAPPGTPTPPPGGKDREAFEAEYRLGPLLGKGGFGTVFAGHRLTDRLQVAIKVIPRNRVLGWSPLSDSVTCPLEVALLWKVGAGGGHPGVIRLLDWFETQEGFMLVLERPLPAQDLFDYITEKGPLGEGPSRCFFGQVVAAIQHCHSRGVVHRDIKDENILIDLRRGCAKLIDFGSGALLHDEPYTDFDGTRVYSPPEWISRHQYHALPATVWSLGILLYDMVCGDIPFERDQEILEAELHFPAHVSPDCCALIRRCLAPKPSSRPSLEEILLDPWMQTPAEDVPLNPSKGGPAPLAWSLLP
Chain of KDR kinase (P35968 20-1356): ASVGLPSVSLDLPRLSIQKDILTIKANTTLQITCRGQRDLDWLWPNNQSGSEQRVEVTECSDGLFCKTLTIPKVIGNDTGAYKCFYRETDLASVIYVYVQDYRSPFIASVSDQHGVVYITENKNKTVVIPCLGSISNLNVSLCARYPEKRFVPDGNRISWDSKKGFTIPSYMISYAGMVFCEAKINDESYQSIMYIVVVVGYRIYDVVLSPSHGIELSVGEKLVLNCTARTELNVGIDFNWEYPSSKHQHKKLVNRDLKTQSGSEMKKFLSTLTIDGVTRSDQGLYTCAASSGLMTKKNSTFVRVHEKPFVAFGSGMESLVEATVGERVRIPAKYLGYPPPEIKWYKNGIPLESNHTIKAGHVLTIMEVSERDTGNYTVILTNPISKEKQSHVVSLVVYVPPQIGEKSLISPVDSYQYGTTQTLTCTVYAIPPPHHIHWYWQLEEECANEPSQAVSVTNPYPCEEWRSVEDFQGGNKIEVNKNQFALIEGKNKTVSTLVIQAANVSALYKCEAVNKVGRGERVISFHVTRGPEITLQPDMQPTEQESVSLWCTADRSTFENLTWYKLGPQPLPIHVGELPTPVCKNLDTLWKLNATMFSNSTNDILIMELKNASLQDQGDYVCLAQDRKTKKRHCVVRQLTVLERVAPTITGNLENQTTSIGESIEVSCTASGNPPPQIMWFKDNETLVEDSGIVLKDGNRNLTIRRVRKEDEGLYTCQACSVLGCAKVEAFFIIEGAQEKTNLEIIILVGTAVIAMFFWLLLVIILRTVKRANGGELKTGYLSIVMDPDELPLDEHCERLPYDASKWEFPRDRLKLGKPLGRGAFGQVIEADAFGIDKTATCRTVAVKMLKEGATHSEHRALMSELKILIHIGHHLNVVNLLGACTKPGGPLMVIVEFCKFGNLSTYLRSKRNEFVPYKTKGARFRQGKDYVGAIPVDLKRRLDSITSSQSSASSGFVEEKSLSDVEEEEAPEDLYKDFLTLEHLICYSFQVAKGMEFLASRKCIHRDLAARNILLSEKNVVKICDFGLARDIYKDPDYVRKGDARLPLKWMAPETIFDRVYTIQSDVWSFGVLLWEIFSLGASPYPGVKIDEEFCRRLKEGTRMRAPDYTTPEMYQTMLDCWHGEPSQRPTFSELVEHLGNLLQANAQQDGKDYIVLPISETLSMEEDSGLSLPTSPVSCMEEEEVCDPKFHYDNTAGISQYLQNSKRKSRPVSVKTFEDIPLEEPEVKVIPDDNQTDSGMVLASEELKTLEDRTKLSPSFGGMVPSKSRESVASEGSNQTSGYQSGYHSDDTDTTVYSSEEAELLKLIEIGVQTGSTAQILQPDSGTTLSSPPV
Chain of Pim1 kinase (P11309 whole entry): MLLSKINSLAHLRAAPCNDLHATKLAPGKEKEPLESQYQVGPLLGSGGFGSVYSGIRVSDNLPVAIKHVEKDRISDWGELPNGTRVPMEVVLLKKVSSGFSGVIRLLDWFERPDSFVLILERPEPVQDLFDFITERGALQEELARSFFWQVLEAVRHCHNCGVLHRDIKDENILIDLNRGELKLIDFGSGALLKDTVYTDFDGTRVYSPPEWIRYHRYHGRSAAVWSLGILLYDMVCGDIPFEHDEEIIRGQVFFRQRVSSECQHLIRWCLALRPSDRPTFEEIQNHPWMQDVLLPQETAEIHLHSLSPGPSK

## Nc1cnc(-c2ccccc2F)nc1C(=O)Nc1cnccc1N1CCC[C@H](O)C1 [Example 649, 5-Amino-2-(2-fluoro-phenyl)-pyrimidine-4-carboxylic acid (3-hydroxy-3,4,5,6-tetrahydro-2H-[1,4′]bipyridinyl-3′-yl)-amide]
Pim1 kinase; read-out: PIM1 IC50
  IC50: < 1 µM
Pim2 kinase; read-out: PIM2 IC50
  IC50: < 1 µM
Pim3 kinase; read-out: PIM3 IC50
  IC50: < 1 µM
KDR kinase
  IC50: 10 to 25 µM

## Nc1cnc(-c2c(F)cccc2F)nc1C(=O)Nc1cnccc1N1CCC[C@H](O)C1 [Example 648, 5-Amino-2-(2,6-difluoro-phenyl)-pyrimidine-4-carboxylic acid (3-hydroxy-3,4,5,6-tetrahydro-2H-[1,4′]bi-pyridinyl-3′-yl)-amide]
Pim1 kinase; read-out: PIM1 IC50
  IC50: < 1 µM
Pim2 kinase; read-out: PIM2 IC50
  IC50: < 1 µM
Pim3 kinase; read-out: PIM3 IC50
  IC50: < 1 µM
KDR kinase
  IC50: 10 to 25 µM

## N[C@H]1CCCN(c2ccncc2NC(=O)c2cccc(-c3ccccc3)n2)C1 [Example 487, 6-Phenyl-pyridine-2-carboxylic acid (3-amino-3,4,5,6-tetrahydro-2H-[1,4′]bipyridinyl-3′-yl)-amide]
Pim1 kinase; read-out: IC50 (μM) PIM1
  IC50: < 1 µM
Pim2 kinase; read-out: IC50 (μM) PIM2
  IC50: < 1 µM
Pim3 kinase; read-out: IC50 (μM) PIM3
  IC50: < 1 µM
KDR kinase
  IC50: 10 to 25 µM

## N[C@H]1CCCN(c2ccncc2NC(=O)c2cccc(-c3ccccc3F)n2)C1 [Example 455, 6-(2-Fluoro-phenyl)-pyridine-2-carboxylic acid (3-amino-3,4,5,6-tetrahydro-2H-[1,4′]bipyridinyl-3′-yl)-amide]
Pim1 kinase; read-out: IC50 (μM) PIM1
  IC50: < 1 µM
Pim2 kinase; read-out: IC50 (μM) PIM2
  IC50: < 1 µM
Pim3 kinase; read-out: IC50 (μM) PIM3
  IC50: < 1 µM
KDR kinase
  IC50: 10 to 25 µM

## CC(C)NC(=O)c1ccc(F)c(-c2ccc(N)c(C(=O)Nc3cnccc3N3CCCC(O)(C(F)(F)F)C3)n2)c1 (centres unmarked) [Example 163, 3-Amino-6-(2-fluoro-5-isopropylcarbamoyl-phenyl)-pyridine-2-carboxylic acid (3-hydroxy-3-trifluoromethyl-3,4,5,6-tetrahydro-2H-[1,4′]bi-pyridinyl-3′-yl)-amide]
Pim1 kinase; read-out: IC50 (μM) PIM1
  IC50: < 1 µM
Pim2 kinase; read-out: IC50 (μM) PIM2
  IC50: < 1 µM
Pim3 kinase; read-out: IC50 (μM) PIM3
  IC50: < 1 µM
KDR kinase
  IC50: 10 to 25 µM

## Nc1ccc(-c2ccccc2F)nc1C(=O)Nc1cnccc1N1CCCC(O)(C(F)(F)F)C1 (centres unmarked) [Example 164, 3-Amino-6-(2-fluoro-phenyl)-pyridine-2-carboxylic acid (3-hydroxy-3-trifluoromethyl-3,4,5,6-tetrahydro-2H-[1,4′]bi-pyridinyl-3′-yl)-amide]
Pim1 kinase; read-out: IC50 (μM) PIM1
  IC50: < 1 µM
Pim2 kinase; read-out: IC50 (μM) PIM2
  IC50: < 1 µM
Pim3 kinase; read-out: IC50 (μM) PIM3
  IC50: < 1 µM
KDR kinase
  IC50: 10 to 25 µM

## NC[C@H]1CCCN1c1ccncc1NC(=O)c1nccnc1N [Example 192, 3-amino-N-{4-[(2R)-2-(amino-methyl)pyrrolidin-1-yl]pyridin-3-yl}pyrazine-2-carboxamide]
Pim1 kinase; read-out: IC50 (μM) PIM1
  IC50: > 25 µM
Pim2 kinase; read-out: IC50 (μM) PIM2
  IC50: > 25 µM
Pim3 kinase; read-out: IC50 (μM) PIM3
  IC50: > 25 µM
[1]
  IC50: > 25 µM

## Cn1cccc1-c1cnc(=O)[nH]c1NC(=O)c1nccnc1N [Example 139, 3-amino-N-[5-(1-methyl-1H-pyrrol-2-yl)-2-oxo-2,3-dihydro-pyrimidin-4-yl]pyrazine-2-carboxamide]
Pim1 kinase; read-out: IC50 (μM) PIM1
  IC50: < 1 µM
Pim2 kinase; read-out: IC50 (μM) PIM2
  IC50: < 1 µM
Pim3 kinase; read-out: IC50 (μM) PIM3
  IC50: < 1 µM
[1]
  IC50: < 1 µM

## NCC1CCCN(c2cnc(=O)[nH]c2NC(=O)c2nc(Br)cnc2N)C1 (centres unmarked) [Example 240, 3-amino-N-{5-[3-(aminomethyl)-piperidin-1-yl]-2-oxo-2,3-dihydropyrimidin-4-yl}-6-bromopyrazine-2-carboxamide]
Pim1 kinase; read-out: IC50 (μM) PIM1
  IC50: < 1 µM
Pim2 kinase; read-out: IC50 (μM) PIM2
  IC50: < 1 µM
Pim3 kinase; read-out: IC50 (μM) PIM3
  IC50: < 1 µM
[1]
  IC50: < 1 µM

## Nc1ncc(-c2ccccc2OC(F)(F)F)nc1C(=O)Nc1[nH]c(=O)ncc1N1CCCCC1 [Example 596, 3-amino-6-(2-trifluoromethoxy-phenyl)-pyrazine-2-carboxylic acid (2-oxo-5-piperidin-1-yl-2,3-dihydro-pyrimidin-4-yl)-amide]
Pim1 kinase; read-out: PIM1 IC50
  IC50: < 1 µM
Pim2 kinase; read-out: PIM2 IC50
  IC50: < 1 µM
Pim3 kinase; read-out: PIM3 IC50
  IC50: < 1 µM
[1]
  IC50: > 25 µM

## Nc1nccnc1C(=O)Nc1[nH]c(=O)ncc1N1CCC(F)(F)CC1 [Example 156, 3-amino-N-[5-(4,4-difluoro-piperidin-1-yl)-2-oxo-2,3-dihydropyrimidin-4-yl]pyrazine-2-carboxamide]
Pim1 kinase; read-out: IC50 (μM) PIM1
  IC50: < 1 µM
Pim2 kinase; read-out: IC50 (μM) PIM2
  IC50: < 1 µM
Pim3 kinase; read-out: IC50 (μM) PIM3
  IC50: < 1 µM
[1]
  IC50: 1 to 10 µM

## COc1ccccc1-c1cnc(N)c(C(=O)Nc2[nH]c(=O)ncc2N2CCCCC2)n1 [Example 594, 3-amino-6-(2-methoxy-phenyl)-pyrazine-2-carboxylic acid (2-oxo-5-piperidin-1-yl-2,3-dihydro-pyrimidin-4-yl)-amide]
Pim1 kinase; read-out: PIM1 IC50
  IC50: < 1 µM
Pim2 kinase; read-out: PIM2 IC50
  IC50: < 1 µM
Pim3 kinase; read-out: PIM3 IC50
  IC50: < 1 µM
[1]
  IC50: > 25 µM

## Nc1nccnc1C(=O)Nc1[nH]c(=O)ncc1-c1cccs1 [Example 137, 3-amino-N-[2-oxo-5-(2-thienyl)-2,3-dihydropyrimidin-4-yl]-pyrazine-2-carboxamide]
Pim1 kinase; read-out: IC50 (μM) PIM1
  IC50: < 1 µM
Pim2 kinase; read-out: IC50 (μM) PIM2
  IC50: < 1 µM
Pim3 kinase; read-out: IC50 (μM) PIM3
  IC50: < 1 µM
[1]
  IC50: < 1 µM

## Nc1cccnc1C(=O)Nc1[nH]c(=O)ncc1N1CCCC(N)C1 (centres unmarked) [Example 242, 3-amino-N-[5-(3-aminopiperidin-1-yl)-2-oxo-2,3-dihydro-pyrimidin-4-yl]pyridine-2-carboxamide]
Pim1 kinase; read-out: IC50 (μM) PIM1
  IC50: < 1 µM
Pim2 kinase; read-out: IC50 (μM) PIM2
  IC50: < 1 µM
Pim3 kinase; read-out: IC50 (μM) PIM3
  IC50: < 1 µM
[1]
  IC50: > 25 µM

## NCCC(=O)N1CCN(c2cnc(=O)[nH]c2NC(=O)c2nc(Br)cnc2N)CC1 [Example 241, 3-amino-N-{5-[4-(3-amino-propanoyl)piperazin-1-yl]-2-oxo-2,3-dihydropyrimidin-4-yl}-6-bromopyrazine-2-carboxamide]
Pim1 kinase; read-out: IC50 (μM) PIM1
  IC50: < 1 µM
Pim2 kinase; read-out: IC50 (μM) PIM2
  IC50: < 1 µM
Pim3 kinase; read-out: IC50 (μM) PIM3
  IC50: < 1 µM
[1]
  IC50: 1 to 10 µM

## Nc1nccnc1C(=O)Nc1[nH]c(=O)ncc1-c1nccs1 [Example 138, 3-amino-N-[2-oxo-5-(1,3-thiazol-2-yl)-2,3-dihydro-pyrimidin-4-yl]pyrazine-2-carboxamide]
Pim1 kinase; read-out: IC50 (μM) PIM1
  IC50: < 1 µM
Pim2 kinase; read-out: IC50 (μM) PIM2
  IC50: < 1 µM
Pim3 kinase; read-out: IC50 (μM) PIM3
  IC50: < 1 µM
[1]
  IC50: > 25 µM

## Nc1nccnc1C(=O)Nc1[nH]c(=O)ncc1N1CCC(C(F)(F)F)CC1 [Example 152, 3-amino-N-{2-oxo-5-[4-(trifluoromethyl)piperidin-1-yl]-2,3-dihydropyrimidin-4-yl}-pyrazine-2-carboxamide]
Pim1 kinase; read-out: IC50 (μM) PIM1
  IC50: < 1 µM
Pim2 kinase; read-out: IC50 (μM) PIM2
  IC50: < 1 µM
Pim3 kinase; read-out: IC50 (μM) PIM3
  IC50: < 1 µM
[1]
  IC50: < 1 µM

## Nc1ncc(Br)nc1C(=O)Nc1[nH]c(=O)ncc1N1CCC(C(F)(F)F)CC1 [Example 153, 3-amino-6-bromo-N-{2-oxo-5-[4-(trifluoromethyl)piperidin-1-yl]-2,3-dihydropyrimidin-4-yl}-pyrazine-2-carboxamide]
Pim1 kinase; read-out: IC50 (μM) PIM1
  IC50: < 1 µM
Pim2 kinase; read-out: IC50 (μM) PIM2
  IC50: < 1 µM
Pim3 kinase; read-out: IC50 (μM) PIM3
  IC50: < 1 µM
[1]
  IC50: > 25 µM

## Cc1ccccc1-c1cnc(N)c(C(=O)Nc2cnccc2N2CCCC(N)C2)n1 (centres unmarked) [Example 351, 3-amino-6-o-tolyl-pyrazine-2-carboxylic acid (3-amino-3,4,5,6-tetrahydro-2H-[1,4′]bi-pyridinyl-3′-yl)-amide]
Pim1 kinase; read-out: IC50 (μM) PIM1
  IC50: < 1 µM
Pim2 kinase; read-out: IC50 (μM) PIM2
  IC50: < 1 µM
Pim3 kinase; read-out: IC50 (μM) PIM3
  IC50: < 1 µM
[1]
  IC50: < 1 µM

## Nc1ncc(-c2ccccc2C(F)(F)F)nc1C(=O)Nc1[nH]c(=O)ncc1N1CCCC(N)C1 (centres unmarked) [Example 404, 3-amino-6-(2-trifluoromethyl-phenyl)-pyrazine-2-carboxylic acid [5-(3-amino-piperidin-1-yl)-2-oxo-2,3-dihydro-pyrimidin-4-yl]-amide]
Pim1 kinase; read-out: IC50 (μM) PIM1
  IC50: < 1 µM
Pim2 kinase; read-out: IC50 (μM) PIM2
  IC50: < 1 µM
Pim3 kinase; read-out: IC50 (μM) PIM3
  IC50: < 1 µM
[1]
  IC50: 1 to 10 µM
